Experiment in all cases: Greenhouse post-emergence spray, plant damage rating
What all share (format): in vivo

Assay [1] concerns Sinapis arvensis (wild mustard). Particulars: S. arvensis, alone and combined. Here is the method: (§1) Three species of weed, used in each test: Hypochoeris radicata (false dandelion), Sinapis, arvensis (wild mustard), and Avena sativa (oats), were grown in a greenhouse facility in 5.5 cm square pots using a potting soil mix comprising peat, vermiculite, sand, and 4-10-10 fertilizer. Water-soluble 20-20-20 fertilizer was used as a supplement for the plants as required. The plants were selected for use based on uniformity and quality and were potted separately. One plant per pot each of H. radicata (6–10 leaves) and S. arvensis (4–6 leaves) were used. Six to eight plants of A. sativa (2–4 leaves) were used per pot. After spraying with a herbicidal composition (as described below) the pots were arranged in a randomized complete block design in sub-irrigated watering trays. Six to ten replicates (pots) were used per treatment.
(§2) Herbicidal treatments were applied using a spray chamber fitted with a TeeJet 8006E flat fan nozzle (available from Spraying Systems Co., Wheaton, Ill.), calibrated to spray at a volume of 60 gpa at 40 psi. Treatment solutions were freshly prepared for each experiment. Plant damage was assessed at 10 to 14 days after treatment using a pre-transformed 0–10 rating scale (0 representing no damage, 10 representing plant death) in accordance with the procedure outlined in Statistical Methods in Agricultural Research, Little, T. M. et al, J. Wiley and Sons, 1975, pp. 119–120, 218.

The subject of assay [2] is Hypochoeris radicata (false dandelion). Particulars: H. radicata, alone and combined. As to the method:
as §1, §2

In a further assay the test system is Avena sativa (oats). To be noted: A. sativa, alone and combined. As to the method:
as §1, §2

[3] abbreviates: Table 3 set 1: Round-Up 0.1%, Potassium pelargonate 0.1%.
Where [4] appears, read: Table 3 set 2: Round-Up 0.1%, Potassium pelargonate 0.5%.
Setting [5] is: Table 3 set 3: Round-Up 0.1%, Potassium pelargonate 0.5% (so in the source).

In the case of `CCCCCCCCC(=O)[O-].[K+]` [Potassium pelargonate], the “Phytotoxicity (%) Observed” value turned out to be 0% in assay [1] (setting [3]); 0% in assay [1] (setting [4]); 2% in assay [1] (setting [5]); 0% in assay [2] (setting [3]); 0% in assay [2] (setting [4]); 3% in assay [2] (setting [5]). In addition, the “Phytotoxicity (%) Observed” value in the assay on Avena sativa (oats) (setting [3]) was determined as 6%; in the assay with Avena sativa (oats) (setting [4]) it was 5%; with Avena sativa (oats) (setting [5]), 7%.

Source of the values: patent US6930075B1, “Fatty acid-based herbicidal composition” (priority 1990, dated 2005).
